Measurements taken from patent US20070112053A1, “Pharmaceutical compositions and methods using temozolomide and a protein kinase inhibitor” (priority 2005, published 2007).

Test system: U87MG (glioblastoma) xenograft tumors
Experiment: U87MG glioblastoma xenograft tumor growth in nude mice
Type: in vivo
Details: for inhibition of U87MG glioblastoma xenograft tumor growth: TMZ alone, ip Day 1-5
Description: The following human glioblastoma xenograft model may be employed to ascertain the efficacy of the formulations and methods described herein. Human glioblastoma cell U87MG are inoculated subcutaneously into female nude mice (age 4-6 wks). Xenograft tumor growth is followed by measuring the tumor size using a caliper. Once tumor size reaches about 100 mm3 (average), mice carrying the xenograft tumors are grouped and treated with different doses of the combination of TMZ and a PKC inhibitor (e.g., enzastaurin). Likewise, human glioblastoma cell U373 may be used to establish a xenograft model.
The combination of TMZ and a PKC inhibitor (e.g., enzastaurin) for treating a cell proliferative disorder was examined using a glioblastoma xenograft model. In particular, the glioblastoma model U87MG was used to evaluate the efficacy of PKC inhibitor enzataurin as a single agent compared to TMZ (Temodar®), a chemotherapeutic drug clinically approved for treating brain tumor, as a single agent. In addition, this study looked at the efficacy of the combination of TMZ with enzastaurin in comparison to the efficacy with either agent alone.
In brief, nude mice were inoculated with U87-MG glioblastoma cells and the resultant tumors treated with control, or various concentrations of TMZ, enzastaurin, or a combination of both TMZ and enzastaurin. More specifically, 150 female nude mice (strain NU/NU), aged 5-7 weeks old were purchased from Charles River Laboratory. Four million glioblastoma cells U87-MG were mixed 1:1 (volume:volume) with Matrigel (Cat. #354234, BD Biosciences) on ice and mixtures were inoculated subcutaneously to the flank of each mouse. Dosing was initiated when the tumors reached an average size of 90 mm^3. The dosing volume was 0.2 mL. Tumor size and body weight was measured two to three times per week. […] Note that there were 10 nude mice per dosing regimen.

SMILES | inhibition of U87MG glioblastoma xenograft tumor growth (5 mpk qd) [%] | inhibition of U87MG glioblastoma xenograft tumor growth (10 mpk qd) [%] | inhibition of U87MG glioblastoma xenograft tumor growth (20 mpk qd) [%] | effect on tumor growth as single agent (enzastaurin alone, 37.5 or 75 mpk qd, po)
Cn1nnc2c(C(N)=O)ncn2c1=O [TMZ, 3,4-dihydro-3-methyl-4-oxoimidazo[5,1-d]-as-tetazine-8-carboxamide] | 98 | 102 | 103 | 
Cn1cc(C2=C(c3cn(C4CCN(Cc5ccccn5)CC4)c4ccccc34)C(=O)NC2=O)c2ccccc21 [enzastaurin] |  |  |  | little effect on tumor growth
